From ChEMBL document CHEMBL1201862, “PubChem BioAssay data set” (2004)
Calls of active or inactive are those of the source.

Columns and labels:
[1] = A cytotoxicity screen of small molecule inhibitors of the PhoP region in Salmonella typhi identified in the primary screen. [Related pubchem assays: 1850, 1864, 1985 ]; assay type: functional
[2] = biological target: Glyceraldehyde-3-phosphate dehydrogenase (Homo sapiens, UniProt P04406)
[3] = P. falciparum Dd2 growth inhibitors, dose response, SYBR Green, dry powder samples (AID 1159566); assay type: functional, cell-based;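 further: potency for growth inhibition with lower SYBR green DNA signal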
[4] = P. falciparum ATP4 D1247Y mutant growth inhibitors, dose response, NITD609-resistant line, SYBR Green, dry powder (AID 1159571); assay type: functional, cell-based;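 further: parasites synchronized at ring stage by sorbitol before testing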
[5] = P. falciparum Dd2 growth inhibitors, dose response, SYBR Green, cherry-picked samples (AID 1159567); assay type: functional, cell-based
[6] = P. falciparum 3D7-ScDHODH growth inhibitors, dose response, SYBR Green, dry powder samples (AID 1159570); assay type: functional, cell-based;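 further: parasite growth measured after 72 hours of compound exposure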
[7] = biological target: T1, Short transient receptor potential channel 4 (Mus musculus, UniProt Q9QUQ5); assay: mouse TRPC4 channel activators, dose response, cell-based, HEK293 TRPC4/mu-opioid, Fluo-4 calcium (AID 434937); assay type: functional
T1 sequence (Q9QUQ5 whole entry): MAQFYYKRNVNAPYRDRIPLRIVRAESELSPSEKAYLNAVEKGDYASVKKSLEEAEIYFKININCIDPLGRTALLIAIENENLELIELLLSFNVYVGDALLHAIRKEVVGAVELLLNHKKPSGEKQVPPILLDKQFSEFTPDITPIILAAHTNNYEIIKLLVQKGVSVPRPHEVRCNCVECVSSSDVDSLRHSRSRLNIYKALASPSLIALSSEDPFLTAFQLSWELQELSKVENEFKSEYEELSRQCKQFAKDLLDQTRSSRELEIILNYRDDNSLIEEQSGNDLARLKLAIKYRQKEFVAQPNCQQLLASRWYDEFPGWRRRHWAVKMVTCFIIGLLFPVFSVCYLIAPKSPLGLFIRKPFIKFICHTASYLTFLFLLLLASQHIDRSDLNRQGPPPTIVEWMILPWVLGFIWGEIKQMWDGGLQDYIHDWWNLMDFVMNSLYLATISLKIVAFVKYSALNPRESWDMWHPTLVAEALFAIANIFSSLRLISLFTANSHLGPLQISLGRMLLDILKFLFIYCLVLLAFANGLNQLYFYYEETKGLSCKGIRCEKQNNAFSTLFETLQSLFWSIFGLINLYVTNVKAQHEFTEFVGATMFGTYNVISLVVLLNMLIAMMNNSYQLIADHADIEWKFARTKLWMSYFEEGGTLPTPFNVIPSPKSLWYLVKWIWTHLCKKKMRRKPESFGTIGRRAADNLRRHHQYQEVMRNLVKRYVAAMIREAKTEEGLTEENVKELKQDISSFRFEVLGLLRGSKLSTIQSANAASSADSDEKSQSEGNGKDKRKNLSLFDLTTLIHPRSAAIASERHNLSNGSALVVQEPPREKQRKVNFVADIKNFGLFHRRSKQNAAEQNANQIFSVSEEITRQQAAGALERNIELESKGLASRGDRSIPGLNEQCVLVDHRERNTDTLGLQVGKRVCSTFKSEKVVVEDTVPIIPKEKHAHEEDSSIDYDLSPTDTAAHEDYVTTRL

[8] = biological target: Induced myeloid leukemia cell differentiation protein Mcl-1 (Homo sapiens, UniProt Q07820); assay type: functional
[9] = biological target: Cytochrome P450 2C9 (Homo sapiens, UniProt P11712)
[10] = biological target: T2, Protein RecA (Mycobacterium tuberculosis, UniProt P9WHJ3); assay: Fluorescence Cell-Free Homogeneous Dose Retest to Identify Inhibitors of RecA-Intein Splicing Activity. [Related pubchem assays (depositor defined):AID2097, AID2223, AID489010, AID492950]; assay type: functional
T2 sequence (P9WHJ3 whole entry): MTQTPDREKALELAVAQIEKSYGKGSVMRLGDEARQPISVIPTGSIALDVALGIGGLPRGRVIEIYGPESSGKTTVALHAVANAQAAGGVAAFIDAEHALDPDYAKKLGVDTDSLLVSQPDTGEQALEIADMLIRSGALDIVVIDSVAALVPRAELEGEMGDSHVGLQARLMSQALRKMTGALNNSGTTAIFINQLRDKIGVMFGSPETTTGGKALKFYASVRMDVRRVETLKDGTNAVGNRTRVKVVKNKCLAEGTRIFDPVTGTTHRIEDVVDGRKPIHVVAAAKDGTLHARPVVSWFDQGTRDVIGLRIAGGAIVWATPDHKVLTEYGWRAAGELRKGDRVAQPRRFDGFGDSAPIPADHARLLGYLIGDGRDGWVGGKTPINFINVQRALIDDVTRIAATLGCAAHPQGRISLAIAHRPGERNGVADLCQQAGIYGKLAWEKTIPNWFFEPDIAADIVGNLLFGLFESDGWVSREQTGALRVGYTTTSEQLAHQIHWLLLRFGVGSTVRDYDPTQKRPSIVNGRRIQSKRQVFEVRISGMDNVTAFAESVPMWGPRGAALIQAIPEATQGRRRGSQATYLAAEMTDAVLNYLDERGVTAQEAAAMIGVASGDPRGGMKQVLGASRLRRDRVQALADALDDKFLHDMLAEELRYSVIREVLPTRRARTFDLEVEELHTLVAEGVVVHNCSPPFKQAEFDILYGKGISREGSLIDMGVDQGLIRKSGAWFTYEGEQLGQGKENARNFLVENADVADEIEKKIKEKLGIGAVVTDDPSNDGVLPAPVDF

[11] = biological target: T3, Replicative DNA helicase DnaB (Mycobacterium tuberculosis, UniProt P9WMR3); assay: DnaB intein splicing inhibitors, dose response, biochemical, cell-free fluorescence (AID 449749); assay type: functional
T3 sequence (P9WMR3 whole entry): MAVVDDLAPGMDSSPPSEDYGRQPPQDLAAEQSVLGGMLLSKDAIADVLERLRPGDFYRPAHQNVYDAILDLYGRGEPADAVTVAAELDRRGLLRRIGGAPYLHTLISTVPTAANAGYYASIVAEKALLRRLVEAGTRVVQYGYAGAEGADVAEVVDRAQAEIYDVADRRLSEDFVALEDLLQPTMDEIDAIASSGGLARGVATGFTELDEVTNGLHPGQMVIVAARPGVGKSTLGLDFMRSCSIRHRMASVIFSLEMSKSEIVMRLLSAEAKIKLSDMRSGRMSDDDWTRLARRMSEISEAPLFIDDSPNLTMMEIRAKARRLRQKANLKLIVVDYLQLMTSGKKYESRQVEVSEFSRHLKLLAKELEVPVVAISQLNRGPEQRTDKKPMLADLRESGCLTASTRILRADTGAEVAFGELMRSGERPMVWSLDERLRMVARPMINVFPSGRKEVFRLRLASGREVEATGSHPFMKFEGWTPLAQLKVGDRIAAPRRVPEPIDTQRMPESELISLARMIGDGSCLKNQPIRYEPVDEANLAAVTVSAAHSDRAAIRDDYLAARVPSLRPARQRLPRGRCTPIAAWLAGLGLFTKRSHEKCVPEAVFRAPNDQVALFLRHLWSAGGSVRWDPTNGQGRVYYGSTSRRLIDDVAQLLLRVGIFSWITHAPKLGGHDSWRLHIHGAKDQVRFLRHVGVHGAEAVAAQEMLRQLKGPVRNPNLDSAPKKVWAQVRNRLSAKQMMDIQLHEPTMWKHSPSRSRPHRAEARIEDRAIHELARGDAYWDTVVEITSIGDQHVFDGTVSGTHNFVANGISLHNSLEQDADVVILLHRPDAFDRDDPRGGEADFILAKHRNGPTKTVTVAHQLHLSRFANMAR

[12] = biological target: FAD-linked sulfhydryl oxidase ALR (Homo sapiens, UniProt P55789); assay: inhibitors of human ALR sulfhydryl oxidase, dose response, biochemical, H2O2 detection, luminescence, cherry-pick (AID 493248)
[13] = biological target: T4, DNA repair protein RAD52 homolog (Homo sapiens, UniProt P43351); assay type: functional, biochemical
T4 sequence (P43351 whole entry): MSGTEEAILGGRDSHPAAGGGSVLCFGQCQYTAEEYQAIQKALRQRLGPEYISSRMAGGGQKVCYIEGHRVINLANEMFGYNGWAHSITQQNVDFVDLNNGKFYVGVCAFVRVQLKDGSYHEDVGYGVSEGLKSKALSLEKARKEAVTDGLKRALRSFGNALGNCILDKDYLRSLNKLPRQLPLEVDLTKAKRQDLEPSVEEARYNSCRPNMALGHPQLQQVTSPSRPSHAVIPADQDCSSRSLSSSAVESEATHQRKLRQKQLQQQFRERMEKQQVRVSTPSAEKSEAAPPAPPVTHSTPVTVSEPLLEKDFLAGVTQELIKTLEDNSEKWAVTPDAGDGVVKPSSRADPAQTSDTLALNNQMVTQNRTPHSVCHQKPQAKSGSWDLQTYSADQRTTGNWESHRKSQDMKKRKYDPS

[14] = inhibitors of intracellular T. cruzi replication, confirmation, NIH3T3 host cells, beta-gal luminescence (AID 2044); assay type: functional, cell-based;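 further: intracellular parasites grown in NIH/3T3 mouse fibroblasts as host cells; luminescent beta-galactosidase reporter signal from transgenic T. cruzi replicating inside host cells; inhibitors lower the luminescence signal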
[15] = cytotoxicity toward NIH3T3 fibroblasts, dose response, counter-screen, cell-based, ATP luminescence, mouse fibroblasts (AID 2010); assay type: functional;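 further: cells exposed to compound for about 90 hours before reading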
[16] = biological target: T5, Calpain-2 catalytic subunit (Sus scrofa, UniProt P43367); assay: pig calpain II inhibitor potency, dose response, biochemical, fluorogenic peptide substrate (AID 1420); assay type: functional
T5 sequence (P43367 whole entry): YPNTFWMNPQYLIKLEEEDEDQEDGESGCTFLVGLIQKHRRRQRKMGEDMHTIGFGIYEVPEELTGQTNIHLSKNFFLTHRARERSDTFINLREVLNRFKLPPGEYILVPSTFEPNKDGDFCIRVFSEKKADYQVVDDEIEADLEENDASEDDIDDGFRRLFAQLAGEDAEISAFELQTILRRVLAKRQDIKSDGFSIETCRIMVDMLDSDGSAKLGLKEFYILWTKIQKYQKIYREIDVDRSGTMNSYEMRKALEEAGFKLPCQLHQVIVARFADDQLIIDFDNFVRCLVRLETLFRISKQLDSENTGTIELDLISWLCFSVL

Chain of Induced myeloid leukemia cell differentiation protein Mcl-1 (Q07820 whole entry): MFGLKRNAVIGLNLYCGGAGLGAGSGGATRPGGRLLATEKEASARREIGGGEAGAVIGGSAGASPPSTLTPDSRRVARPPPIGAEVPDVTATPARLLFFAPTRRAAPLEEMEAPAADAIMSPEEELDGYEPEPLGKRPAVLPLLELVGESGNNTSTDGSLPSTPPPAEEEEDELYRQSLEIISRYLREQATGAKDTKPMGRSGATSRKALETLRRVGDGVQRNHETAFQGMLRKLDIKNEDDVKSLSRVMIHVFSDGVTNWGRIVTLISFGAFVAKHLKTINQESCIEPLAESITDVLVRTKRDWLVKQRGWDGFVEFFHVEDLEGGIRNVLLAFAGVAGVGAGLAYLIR
Chain of FAD-linked sulfhydryl oxidase ALR (P55789 whole entry): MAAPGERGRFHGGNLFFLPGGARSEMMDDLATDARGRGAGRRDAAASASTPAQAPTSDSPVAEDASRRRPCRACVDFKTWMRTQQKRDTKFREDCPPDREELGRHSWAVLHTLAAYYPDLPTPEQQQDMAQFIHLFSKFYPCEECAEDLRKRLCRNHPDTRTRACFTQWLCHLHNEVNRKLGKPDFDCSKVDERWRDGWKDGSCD
Chain of Cytochrome P450 2C9 (P11712 whole entry): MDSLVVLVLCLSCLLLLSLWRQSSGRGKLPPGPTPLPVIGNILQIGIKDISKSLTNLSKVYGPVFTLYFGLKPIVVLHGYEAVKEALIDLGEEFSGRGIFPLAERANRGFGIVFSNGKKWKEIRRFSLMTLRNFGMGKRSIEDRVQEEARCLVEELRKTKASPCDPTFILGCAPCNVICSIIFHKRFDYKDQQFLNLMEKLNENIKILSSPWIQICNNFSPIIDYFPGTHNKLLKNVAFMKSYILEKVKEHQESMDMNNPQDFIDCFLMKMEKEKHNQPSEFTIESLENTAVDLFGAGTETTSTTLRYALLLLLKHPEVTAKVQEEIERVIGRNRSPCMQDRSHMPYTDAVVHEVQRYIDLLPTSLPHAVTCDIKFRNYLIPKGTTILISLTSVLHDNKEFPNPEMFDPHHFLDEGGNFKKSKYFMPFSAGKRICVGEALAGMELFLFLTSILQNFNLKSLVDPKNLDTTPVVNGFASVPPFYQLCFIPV
Chain of Glyceraldehyde-3-phosphate dehydrogenase (P04406 whole entry): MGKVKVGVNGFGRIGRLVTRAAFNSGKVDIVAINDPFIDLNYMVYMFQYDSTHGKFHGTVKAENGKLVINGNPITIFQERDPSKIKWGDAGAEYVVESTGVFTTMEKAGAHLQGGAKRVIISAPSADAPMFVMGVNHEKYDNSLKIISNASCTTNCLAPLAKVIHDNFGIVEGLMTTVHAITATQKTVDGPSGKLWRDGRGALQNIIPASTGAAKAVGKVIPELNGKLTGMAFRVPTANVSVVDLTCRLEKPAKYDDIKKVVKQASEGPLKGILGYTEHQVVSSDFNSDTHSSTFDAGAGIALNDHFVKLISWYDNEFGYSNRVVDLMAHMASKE

For `Fc1ccc(CCNCc2ccccc2Cl)cc1`, which EC50 [1] is on record?
Its EC50 is > 50000 nM (active).

With `O=C1C(Cl)=C(N2CCN(CCO)CC2)C(=O)N1c1ccc(Cl)nc1` as the compound, how does the IC50 [2] read?
Its IC50 is > 50000 nM (inconclusive).

What does the source list for `COc1ccc(C#Cc2cnc3c(c2)C(=O)N([C@H](C)CO)C[C@H](C)[C@H](CN(C)S(=O)(=O)c2cccc(F)c2)O3)cc1OC`?
AC50 [3]: 774 nM (active); AC50 [4]: 1170 nM (active); AC50 [5]: 1380 nM (active); AC50 [6]: 1800 nM (active)

With `Nc1nc2ccccc2cc1-c1cccs1` as the compound, how does the EC50 [1] read?
Its EC50 is > 50000 nM (active).

Which results are given for `CC(C)(C)[S@+]([O-])N1Cc2cc(C(=O)N[C@@H]3CCN(Cc4ccccc4)C3)nc(-c3cccc(-c4cccnc4)c3)c2[C@@H]1CCO`?
AC50 [3]: 1990 nM (active); AC50 [4]: 1980 nM (active); AC50 [5]: 1930 nM (active); AC50 [6]: 2620 nM (active)

Which results are given for `CCCCN(CC)CC/N=c1/c(N2CCN(C(=O)OCC)CC2)c(O)c1=O`?
EC50 [7]: 1680 nM (active); IC50 [8]: 433 nM (active)

Which results are given for `Cc1ccc(Sc2c([N+](=O)[O-])ncn2C)cc1`?
AC50 [9]: 1580 nM (inconclusive); EC50 [10]: 34600 nM (active); AC50 [11]: 112000 nM (active); AC50 [12]: 270 nM (active)

For `CCCc1n[nH]c2c1C(c1ccccc1OC)C(C#N)=C(N)O2` (centres undefined), which EC50 [10] is on record?
The EC50 was 2070 nM (active).

What about the AC50 [11] of the same compound?
The AC50 was 15900 nM (active).

For `CN1CCN(CC(O)COc2ccc(C34CC5CC(CC(C5)C3)C4)cc2)CC1` (centres undefined), which AC50 [13] is on record?
The AC50 was 10500 nM (active).

Which EC50 [14] does the source give for `CN1CCN(CCCNC(=O)c2ccc(/C=C3/Sc4ccccc4N(Cc4cccc(Cl)c4)C3=O)cc2)CC1` here?
The EC50 was 110 nM (active).

What about the AC50 [13] of the same compound?
Its AC50 is 14000 nM (active).

What about the EC50 [15] of the same compound?
The EC50 was 5710 nM (active).

With `CC1CCc2c(sc3c2C2=NS(=O)(=O)CCN2C=N3)C1` (centres undefined) as the compound, how does the IC50 [16] read?
Its IC50 is 9530 nM (not active).
